Data set [1] in a line: Physical compatibility studies (mixtures in vials, visual). Format: physicochemical. To be noted: for compatibility with VDPA copolymer: in the presence of VDPA copolymer. Here is the method:
A first set of samples was made by combining Didecyldimethylammonium chloride (DDAC) Ammonium Quaternary Cationic Surfactant, and Tributyl Tetradecyl Phosphonium Chloride (TTPC). These ingredients were combined in a 20 mL borosilicate vial with a plastic cap to a total volume of 10 mLs so that the final concentration of DDAC was 5 wt. % active ingredient and the final concentration of TTPC was 1 wt. % active ingredient. The total volume was achieved by mixing with tap water (WTW). Samples were mixed, capped, and shaken vigorously and allowed to sit at room temperature for up to 24 hours. […] All weight percent values in the examples are wt. % active ingredient.
Another test sample consisted of 20 wt. % THPS, 2 wt. % VDPA copolymer biopenetrant, 4 wt. % DDAC, 4 wt. % TTPC, and 35 wt. % Ethylene Glycol Monobutyl Ether (EGMBE, which was used as a mutual solvent) (wt. % active ingredients) and was mixed as were the samples of Example 1 and brought to a total volume of 13.9 mLs with tap water (WTW).
(§1) Two additional samples were made. One was TTPC aqueous solution (50 wt. % a.i.) which was TTPC alone with the balance water (labelled TTPC). The other sample was made of 95 wt. % TTPC aqueous solution (50 wt. % a.i.) combined with a 5 wt. % VDPA copolymer aqueous solution (50 wt. % a.i.)(labelled TTPC+ESL). Thus, the final concentration on an active ingredient basis was 47.5% wt. % TTPC and 2.5 wt. % VDPA copolymer with the balance water. This comparison was made to determine the compatibility of the mixture without mutual solvent.

For data set [2], the system named is Pseudomonas aeruginosa. As to the kind of experiment: Biocidal efficacy study, Modified Robbins Device culture/biofilm. Type of data set: cell-based. To be noted: 100 ppm dosed, FIG. 4. Here is the method: To test biocidal efficacy of TTPC in the presence of VDPA anionic copolymer two additional samples were made. One was 50 wt. % TTPC (a.i.) alone with the balance water (labelled TTPC). The other was TTPC combined with VDPA copolymer with the balance water (labelled TTPC A) which was 47.5% TTPC (a.i.) and 2.5% VDPA copolymer biopenetrant. A standard biofilm was grown with Pseudomonas aeruginosa, a known biofilm former and General Heterotrophic Bacteria (GHB), and treated with either the TTPC or TTPC A Series samples. Pseudomonas aeruginosa was cultured in a media of tryptone soy broth and grown at room temperature with gentle stirring. This culture solution was slowly passed through a Modified Robbins Device (MRD) from Tyler Research for approximately 6 weeks to establish a robust biofilm. Once the film was established, 100 ppm of TTPC Series or TTPC A Series was dosed to the biofilms and the efficacy of the biocide on the microorganisms was measured as shown in FIG. 4.

Data set [3] is described as follows: Storage stability of TTPC+ESL mixture at different temperatures. Type of data set: physicochemical. To be noted: −25° C.
From the text: as §1
However, the sample was frozen at −25° C. TTPC was also frozen at −25 C.

Turning to “alkyldimethylbenzylammonium chloride [ADBAC]”, the “compatibility with VDPA copolymer” value in data set [1] was “will precipitate”.
`CCCCCCCCCC[N+](C)(C)CCCCCCCCCC.[Cl-]` [DDAC, Didecyldimethylammonium chloride]: the “physical compatibility / appearance in tap water” value in data set [1] (balance tap water (WTW), room temperature, up to 24 hours) is listed as “some cloudiness”. For the same compound, in data set [1], the “compatibility with VDPA copolymer” value was “will precipitate”. Besides, in data set [1] (water), the solubility in water result was “sparingly soluble in water”.
For the compound `CCCCCCCCCCCCCC[P+](CCCC)(CCCC)CCCC.Cl` [TTPC, tributyl-tetradecylphosphonium chloride], the “efficacy against planktonic bacteria” value in data set [2] is on record as “effective”. The “state of sample at low temperature” value in data set [3] is reported as “frozen”.

Values taken from patent publication US20200299155A1, “BIOCIDAL COMPOSITIONS INCLUDING A PHOSPHONIUM QUATERNARY CATIONIC SURFACTANT AND METHODS FOR USING SAME” (Rhodia Operations, priority 2019, published 2020).
